These results are taken from paper PMC5977504, “Mucin architecture behind the immune response: design, evaluation and conformational analysis of an antitumor vaccine derived from an unnatural MUC1 fragment” (Chemical Science, 2015).

The data set in a line: Degradation studies with human plasma (20% human serum). Format: in vitro ADME. To be noted: 20% human serum (from human male AB plasma) in water, 37 °C, glycopeptide 0.5 mg·mL-1, sampled every hour, UPLC-micrOTOF-Q. From the text:
We examined then the stability of the unnatural MUC1 derivative in human plasma. To this end, we synthesized glycopeptides APDThr(α-D-GalNAc)RP and APDMeSer(α-D-GalNAc)RP (ESI ^†). The degradation of the glycopeptide containing threonine was faster (around 1.8-fold) compared to the unnatural compound. […]
an r−6 averaging. The equilibrium distance range was set to rexp − 0.2 Å ≤ rexp ≤ rexp + 0.2 Å.
Trajectories were run at 298 K, with a decay constant of 2000 ps and a time step of 1 fs.
The force constants rk2 and rk3 used in each case were 10 kcal·mol−1·Å−2. The overall simulation length for the simulations was 20 ns. The coordinates were saved each 1 ps, thus, obtaining MD trajectories of 20000 frames each. A convergence within the equilibrium distance range was obtained in the simulations. The analysis of the MD-tar trajectories has been carried out with the cpptraj modules of AMBER 12.
Degradation studies with human plasma.
Commercially available serum from human male AB plasma was used. […] Degradation of the peptides was determined every hour by using UPLC-micrOTOF-Q (column: ACQUITY UPLC BEH C18 1,7; diameter: 2.1 mm and length: 100 mm), eluting a mixture of 5 µL of the glycopeptide-serum solution in 795 µL of water and employing an isocratic method (70% H2O, 30% acetonitrile, temperature: […]

Each structure is given as a SMILES string.

For the compound `CC(=O)N[C@H]1[C@@H](O[C@H](C)[C@H](NC(=O)[C@H](CC(=O)O)NC(=O)[C@@H]2CCCN2C(=O)[C@H](C)N)C(=O)N[C@@H](CCCNC(=N)N)C(=O)N2CCC[C@H]2C(N)=O)O[C@H](CO)[C@H](O)[C@@H]1O` [APDThr(α-D-GalNAc)RP], the “degradation, faster compared to the unnatural compound APDMeSer(α-D-GalNAc)RP” value is reported as “around 1.8 fold”.
